# Source: US10851097B2, “4,5,6,7-tetrahydro-1H-imidazo[4,5-c]pyridine and 1,4,5,6,7,8-hexahydroimidazo[4,5-d]azepine derivatives as janus kinase inhibitors” (Topivert Pharma Limited, priority 2015, dated 2020)
# Test system: Jurkat cells
# Experiment: Cell cytotoxicity assay in Jurkat cells (assay (c))
# Assay type: cell-based, human
# Details: 24 h, propidium iodide, normalised to DMSO control
# Method: (c) Cell Cytotoxicity Assay
# 1×10^5 Jurkat cells (immortalised human T lymphocytes) are added to the appropriate number of wells of a 96 well plate in 100 μL of media (RPMI supplemented with 10% foetal bovine serum). 1 μL of DMSO control (final concentration 1.0% v/v) or test compound (final concentration 20, 5 or 1 μg/mL) is added to the wells and incubated at 37° C., 5% CO2. After 24 hours, the plate is centrifuged at 1200 rpm for 3 minutes and the supernatant discarded. Cells are then resuspended in 150 μL (final concentration 7.5 μg/mL) of propidium iodide (PI) in PBS and incubated at 37° C., 5% CO2 for 15 minutes. After 15 minutes, cells are analysed by flow cytometry (BD accuri) using the FL3 window. The % viability is calculated as the % of cells that are PI negative in the test wells normalised to the DMSO control.
smiles,measurement,value
"CCc1cc(O)c(F)cc1-c1ccc2c(-c3nc4c([nH]3)CCN(C(=O)c3cnc(N(C)CCN5CCCC5=O)cn3)C4)n[nH]c2c1 [Example 2(k), 1-(2-((5-(2-(6-(2-ethyl-5-fluoro-4-hydroxyphenyl)-1H-indazol-3-yl)-4,5,6,7-tetrahydro-1H-imidazo[4,5-c]pyridine-5-carbonyl)pyrazin-2-yl)(methyl)amino)ethyl)pyrrolidin-2-one]",% viability at 1 μg/mL,93%
